# Measured values reported in ChEMBL document CHEMBL1130778, “The synthesis and evaluation of cyclic ureas as HIV protease inhibitors: modifications of the P1/P1' residues” (Bioorg Med Chem Lett, 1998).
# pKi: −log10 of the molar value.
# How the values were obtained:
# [1] = test system: Human immunodeficiency virus 1; assay: Whole cell antiviral activity.; format: functional
# [2] = biological target: Human immunodeficiency virus type 1 protease (Human immunodeficiency virus 1, UniProt Q72874); assay: HIV protease inhibition.
smiles,measurement,setting,value
O=C1N(Cc2ccccc2)[C@H](Cc2ccc(OCCO)cc2)[C@H](O)[C@@H](O)[C@@H](Cc2ccc(OCCO)cc2)N1Cc1ccccc1,IC90,[1],78 nM
same,pKi,[2],9.12
CNCCOc1ccc(C[C@@H]2[C@H](O)[C@@H](O)[C@@H](Cc3ccc(OCCNC)cc3)N(Cc3ccccc3)C(=O)N2Cc2ccccc2)cc1,IC90,[1],800 nM
same,pKi,[2],8.80
O=C1N(Cc2ccccc2)[C@H](Cc2ccc(OCCN3CCOCC3)cc2)[C@H](O)[C@@H](O)[C@@H](Cc2ccc(OCCN3CCOCC3)cc2)N1Cc1ccccc1,IC90,[1],230 nM
same,pKi,[2],8.23
O=C1N(Cc2ccccc2)[C@H](Cc2ccc(OCc3ccncc3)cc2)[C@H](O)[C@@H](O)[C@@H](Cc2ccc(OCc3ccncc3)cc2)N1Cc1ccccc1,IC90,[1],100 nM
same,pKi,[2],9.08
O=C1N(Cc2cccc(-c3cc[nH]n3)c2)[C@H](Cc2ccc(OCc3ccncc3)cc2)[C@H](O)[C@@H](O)[C@@H](Cc2ccc(OCc3ccncc3)cc2)N1Cc1cccc(-c2cc[nH]n2)c1,IC90,[1],18 nM
same,pKi,[2],10.15
COc1ccc(C[C@@H]2[C@H](O)[C@@H](O)[C@@H](Cc3ccc(OC)cc3)N(Cc3cccc(-c4cc[nH]n4)c3)C(=O)N2Cc2cccc(-c3cc[nH]n3)c2)cc1,IC90,[1],10 nM
same,pKi,[2],10.11
O=C1N(Cc2ccccc2)[C@H](Cc2ccccc2)[C@H](O)[C@@H](O)[C@@H](Cc2ccccc2)N1Cc1ccccc1,IC90,[1],790 nM
O=C1N(Cc2ccccc2)[C@H](Cc2ccc(O)cc2)[C@H](O)[C@@H](O)[C@@H](Cc2ccc(O)cc2)N1Cc1ccccc1,IC90,[1],184 nM
O=C1N(Cc2cccc(-c3cc[nH]n3)c2)[C@H](Cc2ccc(O)cc2)[C@H](O)[C@@H](O)[C@@H](Cc2ccc(O)cc2)N1Cc1cccc(-c2cc[nH]n2)c1,IC90,[1],1340 nM
same,pKi,[2],10.80
O=C1N(Cc2cccc(-c3cc[nH]n3)c2)[C@H](Cc2ccc(OCc3cccnc3)cc2)[C@H](O)[C@@H](O)[C@@H](Cc2ccc(OCc3cccnc3)cc2)N1Cc1cccc(-c2cc[nH]n2)c1,IC90,[1],32 nM
same,pKi,[2],10.23
O=C1N(Cc2cccc(-c3cc[nH]n3)c2)[C@H](Cc2ccccc2)[C@H](O)[C@@H](O)[C@@H](Cc2ccccc2)N1Cc1cccc(-c2cc[nH]n2)c1,IC90,[1],56 nM
O=C1N(Cc2cccc(-c3cc[nH]n3)c2)[C@H](Cc2ccc(OCCN3CCOCC3)cc2)[C@H](O)[C@@H](O)[C@@H](Cc2ccc(OCCN3CCOCC3)cc2)N1Cc1cccc(-c2cc[nH]n2)c1,IC90,[1],1030 nM
same,pKi,[2],9.89
CN(C)CCOc1ccc(C[C@@H]2[C@H](O)[C@@H](O)[C@@H](Cc3ccc(OCCN(C)C)cc3)N(Cc3cccc(-c4cc[nH]n4)c3)C(=O)N2Cc2cccc(-c3cc[nH]n3)c2)cc1,IC90,[1],5400 nM
same,pKi,[2],10.21
O=C1N(Cc2cccc(-c3cc[nH]n3)c2)[C@H](Cc2ccc(OCCO)cc2)[C@H](O)[C@@H](O)[C@@H](Cc2ccc(OCCO)cc2)N1Cc1cccc(-c2cc[nH]n2)c1,IC90,[1],462 nM
same,pKi,[2],10.23
COc1ccc(C[C@@H]2[C@H](O)[C@@H](O)[C@@H](Cc3ccc(OC)cc3)N(Cc3ccccc3)C(=O)N2Cc2ccccc2)cc1,IC90,[1],600 nM
O=C1N(Cc2ccc(CO)cc2)[C@H](Cc2ccccc2)[C@H](O)[C@@H](O)[C@@H](Cc2ccccc2)N1Cc1ccc(CO)cc1 [DMP-323],IC90,[1],91 nM
same,pKi,[2],9.54
Nc1cccc(CN2C(=O)N(Cc3cccc(N)c3)[C@H](Cc3ccccc3)[C@H](O)[C@@H](O)[C@H]2Cc2ccccc2)c1 [MOZENAVIR],IC90,[1],126 nM
